Results published in patent US10494360B2, “Inhibitors of indoleamine 2,3-dioxygenase” (NETHERLANDS TRANSLATIONAL RESEARCH CENTER B.V., priority 2016, dated 2019).
Values joined by “and” are separate entries in the source; they are usually repeats but may differ in a detail not shown here. Equal values may be shown once.

What was measured:
[1] = target: T1, IDO1 (Homo sapiens, UniProt P14902); assay: Cell-based assay for IDO1 in interferon-γ stimulated A-375 melanoma cells; conditions: interferon-γ stimulation, 48 hours, read-out: IC50, cell-based IDO1 (NFK levels)
Description: The biological activity of IDO1 inhibitors can be measured by applying above detection methods to cells that are treated with test compound. The expression of IDO1 can be induced in many different cell lines by stimulation with IFNγ (Takikawa, O., et al., J. Biol. Chem. 263: 2041; 1988; Seegers, et al.), or IDO1 can be expressed in cells that lack endogenous IDO1 by transfection of an expression vector containing IDO1 cDNA.
A-375 melanoma cells were purchased from LGC Standards GmbH (Wesel, Germany) and cultured in DMEM tissue culture medium (Life Technologies, Bleiswijk, The Netherlands), supplemented with 10% (v/v) bovine calf serum. Compounds were dissolved in DMSO and diluted in DMEM. Final DMSO concentration in the assay was 0.4% (v/v). Eight thousand cells per well in 35 μl were seeded in a black 384-well tissue plate (cat. No. 781086; Greiner Bio-One GmbH, Frickenhausen, Germany) and allowed to adhere by incubation at 37° C., 95% humidity, and 5% CO2 overnight. Then, 5 μl of compound solution was added to the cells 1 hour prior to stimulation with 5 μl of 500 ng/ml interferon-γ (R&D Systems, Minneapolis, Minn., USA) diluted in DMEM medium. At the same time, 5 μl of L-tryptophan in 20 mM Hepes buffer pH 7.4 was added. Incubation was continued for 48 hours. To determine NFK levels, 12 μl NFK Green™ (NTRC, Oss, The Netherlands) was added to each well, and the plate was sealed and incubated for 4 hours at 37° C. Fluorescence was measured on an EnVision multimode reader (Perkin Elmer, Waltham, Mass., USA). IC50 were calculated using XLfit™ software (ID Business Solutions, Ltd., Surrey, U.K.).

[2] = target: T1, IDO1; assay: Biochemical IDO1 assay (NFK GreenScreen); set-up: Recombinant full-length IDO1 (Seegers, N., et al.) and all other assay components were diluted in IDO1 reaction buffer; made in house; conditions: recombinant full-length IDO1 25 nM, L-tryptophan 100 μM, NFK Green detection; read-out: IC50, inhibitory potency on IDO1
Summary of the method: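 Recombinant full-length IDO1 in 50 mM NaH2PO4 pH 7.0 with 0.05% Tween-20 and 1% glycerol converted 100 μM L-tryptophan (final) over 60 min at room temperature with compound, 0.3% DMSO.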

T1 sequence (P14902 whole entry, species assumed): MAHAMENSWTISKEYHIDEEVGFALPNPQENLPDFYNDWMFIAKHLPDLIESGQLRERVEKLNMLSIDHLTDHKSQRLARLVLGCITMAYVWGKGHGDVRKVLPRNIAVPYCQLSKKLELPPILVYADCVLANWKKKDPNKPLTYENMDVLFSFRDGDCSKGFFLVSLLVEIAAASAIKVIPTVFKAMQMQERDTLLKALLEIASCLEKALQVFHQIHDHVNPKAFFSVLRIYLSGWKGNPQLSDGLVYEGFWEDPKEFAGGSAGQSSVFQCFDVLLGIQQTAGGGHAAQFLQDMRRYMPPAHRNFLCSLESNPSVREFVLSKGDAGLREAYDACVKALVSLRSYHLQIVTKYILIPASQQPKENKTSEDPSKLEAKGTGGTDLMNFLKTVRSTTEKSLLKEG

| SMILES | IC50 [1] | IC50 [2] |
| --- | --- | --- |
| O=C1CN(C(=O)c2c(F)cccc2Cl)C(c2cccc(Br)c2)N1O (stereo not drawn) [Example 32, 2-(3-Bromophenyl)-1-(2-chloro-6-fluoro-benzoyl)-3-hydroxy-imidazolidin-4-one] | < 5 µM | ≤ 1 µM |
| O=C1CN(C(=O)c2ccccc2F)C(c2cccc(Br)c2)N1O (stereo not drawn) [Example 33, 2-(3-Bromophenyl)-1-(2-fluorobenzoyl)-3-hydroxy-imidazolidin-4-one] | < 5 µM | ≤ 1 µM |
| O=C1CN(C(=O)c2ccccc2Cl)C(c2cccc(Br)c2)N1O (stereo not drawn) [Example 34, 2-(3-Bromophenyl)-1-(2-chlorobenzoyl)-3-hydroxy-imidazolidin-4-one] | < 5 µM | ≤ 1 µM |
| O=C1CN(C(=O)c2cccc(Cl)c2Cl)C(c2cccc(Br)c2)N1O (stereo not drawn) [Example 35, 2-(3-Bromophenyl)-1-(2,3-dichlorobenzoyl)-3-hydroxy-imidazolidin-4-one] | < 5 µM | ≤ 1 µM |
| O=C1CN(C(=O)c2ccccc2)C(c2ccc(F)c(Br)c2)N1O (stereo not drawn) [Example 39, 1-Benzoyl-2-(3-bromo-4-fluoro-phenyl)-3-hydroxy-imidazolidin-4-one] | < 5 µM | ≤ 5 µM and 1 to 5 µM |
| O=C1CN(C(=O)c2cccc(F)c2)C(c2ccc(F)c(Br)c2)N1O (stereo not drawn) [Example 43, 2-(3-Bromo-4-fluoro-phenyl)-1-(3-fluorobenzoyl)-3-hydroxy-imidazolidin-4-one] | < 5 µM | ≤ 5 µM and 1 to 5 µM |
| O=C1CN(C(=O)c2c(F)cccc2F)C(c2ccc(F)c(Br)c2)N1O (stereo not drawn) [Example 44, 2-(3-Bromo-4-fluoro-phenyl)-1-(2,6-difluorobenzoyl)-3-hydroxy-imidazolidin-4-one] | < 5 µM | ≤ 1 µM |
| O=C1CN(C(=O)c2c(F)cccc2Cl)C(c2ccc(F)c(Br)c2)N1O (stereo not drawn) [Example 45, 2-(3-Bromo-4-fluoro-phenyl)-1-(2-chloro-6-fluoro-benzoyl)-3-hydroxy-imidazolidin-4-one] | < 5 µM | ≤ 1 µM |
| O=C1CN(C(=O)c2ccccc2F)C(c2ccc(F)c(Br)c2)N1O (stereo not drawn) [Example 46, 2-(3-Bromo-4-fluoro-phenyl)-1-(2-fluoro-benzoyl)-3-hydroxy-imidazolidin-4-one] | < 5 µM | ≤ 1 µM |
| O=C1CN(C(=O)c2ccccc2F)C(c2ccc(F)c(Cl)c2)N1O (stereo not drawn) [Example 51, 2-(3-Chloro-4-fluoro-phenyl)-1-(2-fluorobenzoyl)-3-hydroxy-imidazolidin-4-one] | < 5 µM | ≤ 1 µM |
| O=C1CN(C(=O)c2c(F)cccc2F)C(c2ccc(F)c(Cl)c2)N1O (stereo not drawn) [Example 52, 2-(3-Chloro-4-fluoro-phenyl)-1-(2,6-difluorobenzoyl)-3-hydroxy-imidazolidin-4-one] | < 5 µM | ≤ 1 µM |
| O=C1CN(C(=O)c2c(F)cccc2Cl)C(c2ccc(F)c(Cl)c2)N1O (stereo not drawn) [Example 53, 1-(2-Chloro-6-fluoro-benzoyl)-2-(3-chloro-4-fluoro-phenyl)-3-hydroxy-imidazolidin-4-one] | < 5 µM | ≤ 1 µM |
| O=C1CN(C(=O)c2ccc(F)cc2F)C(c2cccc(Br)c2)N1O (stereo not drawn) [Example 54, 2-(3-Bromophenyl)-1-(2,4-difluorobenzoyl)-3-hydroxy-imidazolidin-4-one] | < 5 µM | ≤ 1 µM |
| O=C1CN(C(=O)c2ccc(F)cc2F)C(c2cccc(Cl)c2)N1O (stereo not drawn) [Example 59, 2-(3-Chlorophenyl)-1-(2,4-difluorobenzoyl)-3-hydroxy-imidazolidin-4-one] | < 5 µM | ≤ 1 µM |
| O=C1CN(C(=O)c2c(F)c(F)c(F)c(F)c2F)C(c2cccc(Br)c2)N1O (stereo not drawn) [Example 62, 2-(3-Bromophenyl)-3-hydroxy-1-(2,3,4,5,6-pentafluorobenzoyl)imidazolidin-4-one] | < 5 µM | ≤ 1 µM |
| COc1cc(F)c(C(=O)N2CC(=O)N(O)C2c2cccc(Br)c2)c(F)c1 (stereo not drawn) [Example 66, 2-(3-Bromophenyl)-1-(2,6-difluoro-4-methoxy-benzoyl)-3-hydroxy-imidazolidin-4-one] | < 5 µM | ≤ 1 µM |
| O=C1CN(C(=O)c2c(F)cccc2F)C(c2cccc([N+](=O)[O-])c2)N1O (stereo not drawn) [Example 67, 1-(2,6-Difluorobenzoyl)-3-hydroxy-2-(3-nitrophenyl)imidazolidin-4-one] | < 5 µM | ≤ 1 µM |

| SMILES | IC50 [1] | IC50 [2] |
| --- | --- | --- |
| O=C1CN(C(=O)c2c(F)cccc2F)C(c2cccc(I)c2)N1O (stereo not drawn) [Example 71, 1-(2,6-Difluorobenzoyl)-3-hydroxy-2-(3-iodophenyl)imidazolidin-4-one] | < 5 µM | ≤ 1 µM |
| O=C1CN(C(=O)c2c(F)cccc2Cl)C(c2cccc(I)c2)N1O (stereo not drawn) [Example 72, 1-(2-chloro-6-fluoro-benzoyl)-3-hydroxy-2-(3-iodophenyl)imidazolidin-4-one] | < 5 µM | ≤ 1 µM |
| O=C1CN(C(=O)c2ccccc2F)C(c2cccc(I)c2)N1O (stereo not drawn) [Example 73, 1-(2-Fluorobenzoyl)-3-hydroxy-2-(3-iodophenyl)imidazolidin-4-one] | < 5 µM | ≤ 1 µM |
| Nc1ccc(F)c(C(=O)N2CC(=O)N(O)C2c2cccc(Br)c2)c1F (stereo not drawn) [Example 76, 1-(3-Amino-2,6-difluoro-benzoyl)-2-(3-bromophenyl)-3-hydroxy-imidazolidin-4-one] | < 5 µM | ≤ 1 µM |
| O=C1CN(C(=O)c2c(F)cc(F)cc2F)C(c2cccc(Br)c2)N1O (stereo not drawn) [Example 82, 2-(3-Bromophenyl)-3-hydroxy-1-(2,4,6-trifluorobenzoyl)imidazolidin-4-one] | < 5 µM | ≤ 1 µM |
| O=C1CN(C(=O)c2c(F)cc(Br)cc2F)C(c2cccc(Br)c2)N1O (stereo not drawn) [Example 85, 1-(4-Bromo-2,6-difluoro-benzoyl)-2-(3-bromophenyl)-3-hydroxy-imidazolidin-4-one] | < 5 µM | ≤ 1 µM |
| O=C1CN(C(=O)c2ccncc2F)C(c2cccc(Br)c2)N1O (stereo not drawn) [Example 86, 2-(3-Bromophenyl)-1-(3-fluoropyridine-4-carbonyl)-3-hydroxy-imidazolidin-4-one] | < 5 µM | ≤ 1 µM |
| O=C1CN(C(=O)c2cccnc2F)C(c2cccc(Br)c2)N1O (stereo not drawn) [Example 87, 2-(3-Bromophenyl)-1-(2-fluoropyridine-3-carbonyl)-3-hydroxy-imidazolidin-4-one] | < 5 µM | ≤ 1 µM |
| C#Cc1cccc(C2N(O)C(=O)CN2C(=O)c2c(F)cccc2F)c1 (stereo not drawn) [Example 98, 1-(2,6-Difluorobenzoyl)-2-(3-ethynylphenyl)-3-hydroxy-imidazolidin-4-one] | < 5 µM | ≤ 1 µM |
| O=C1CN(C(=O)c2c(F)cccc2F)C(c2cccc(C3CC3)c2)N1O (stereo not drawn) [Example 99, 2-(3-Cyclopropylphenyl)-1-(2,6-difluorobenzoyl)-3-hydroxy-imidazolidin-4-one] | < 5 µM | ≤ 5 µM and 1 to 5 µM |
| O=C1CN(C(=O)c2c(F)cc(C#CC3CC3)cc2F)C(c2cccc(Br)c2)N1O (stereo not drawn) [Example 106, 2-(3-Bromophenyl)-1-[4-(2-cyclopropylethynyl)-2,6-difluoro-benzoyl]-3-hydroxy-imidazolidin-4-one] | < 5 µM | ≤ 1 µM |
| CC(C)C#Cc1cc(F)c(C(=O)N2CC(=O)N(O)C2c2cccc(Br)c2)c(F)c1 (stereo not drawn) [Example 107, 2-(3-Bromophenyl)-1-[2,6-difluoro-4-(3-methylbut-1-ynyl)benzoyl]-3-hydroxy-imidazolidin-4-one] | < 5 µM | ≤ 1 µM |
| O=C1CN(C(=O)c2c(F)cc(C#CC3CCCCC3)cc2F)C(c2cccc(Br)c2)N1O (stereo not drawn) [Example 108, 2-(3-Bromophenyl)-1-[4-(2-cyclohexylethynyl)-2,6-difluoro-benzoyl]-3-hydroxy-imidazolidin-4-one] | < 5 µM | ≤ 1 µM |
| O=C1CN(C(=O)c2c(F)cc(C3CC3)cc2F)C(c2cccc(Br)c2)N1O (stereo not drawn) [Example 114, 2-(3-Bromophenyl)-1-(4-cyclopropyl-2,6-difluoro-benzoyl)-3-hydroxy-imidazolidin-4-one] | < 5 µM | ≤ 1 µM |
| C=Cc1cc(F)c(C(=O)N2CC(=O)N(O)C2c2cccc(Br)c2)c(F)c1 (stereo not drawn) [Example 115, 2-(3-Bromophenyl)-1-(2,6-difluoro-4-vinyl-benzoyl)-3-hydroxy-imidazolidin-4-one] | < 5 µM | ≤ 1 µM |
| Cc1cc(F)c(C(=O)N2CC(=O)N(O)C2c2cccc(Br)c2)c(F)c1 (stereo not drawn) [Example 116, 2-(3-Bromophenyl)-1-(2,6-difluoro-4-methyl-benzoyl)-3-hydroxy-imidazolidin-4-one] | < 5 µM | ≤ 1 µM |
